From patent US10525030B2 (priority 2013, dated 2020)

Test system: lithium-pilocarpine model of temporal lobe epilepsy
Assay: Neuroprotection activity using the lithium-pilocarpine model of temporal lobe epilepsy
Format: in vivo, Male Sprague-Dawley rats
Settings: rats after Li-pilocarpine
Method: Male Sprague-Dawley rats (purchased from Orient Bio Inc. Korea) of body weight 175-230 g were used for these studies and housed 4 rats per cage for 4-5 days. On the day prior to status epilepsy (SE), rats received 127 mg/kg lithium chloride (Sigma, St. Louis, Mo., U.S.A.) intraperitoneal (i.p.). Approximately 18-20 h following this treatment, rats were given an i.p. injection of 43 mg/kg pilocarpine (Sigma). An i.p. injection of 2 mg/kg methyl-scopolamine (Sigma) was administered 30 min prior to pilocarpine to block the effects of the muscarinic agonist on peripheral cholinergic receptors. The effects of various dose compound (or example) 1, 65 and 67, dissolved in 30% Poly Ethylene Glycol 400 (Acros Organics, Geel, Belgium) were studied at 30 min after SE onset. The drugs were administered i.p. in a volume of 2 ul/g body weight. Pharmacological effects of all the test materials were evaluated to compared test groups (n=8) with a control group (n=8). Control group was administrated vehicle, only. All animals were kept for 2 weeks to look at the mortality and quantification of cell densities was performed 14 days after SE in test groups and control rats not subjected to SE. The animals were deeply anesthetized by injection lumpun plus zoletile, 7:3 (v/v) and perfused transcardially with 150 ml of ice-cold 0.01 M phosphate buffer followed by 250 ml of freshly prepared ice-cold 4% paraformaldehyde (PFA) in 0.1 M phosphate buffer, pH 7.4. The brains were removed and postfixed in the same fixative for an additional 22˜24 h at 4° C., and then transferred to 30% sucrose for cryoprotection until the samples were precipitated. Brains were frozen in methyl butane with dry ice and stored at −80° C. Serial coronal […] slices were cut in a cryostat (Microtome HM 1850, Leica, Germany) and put the sections onto the slides, and air-dried before thionine staining. Every fifth section was selected for morphometric analysis.
Neuronal density quantification was performed automatically with the MCID Elite software (Interfocus Ltd, Linton, UK) by counting the number of neurons present in a defined area of the structure of interest (dorsal hippocampus—CA1, CA3, DZ) and carried out with a microscopic enlargement of 200- or 400-fold. Countings were performed twice on each side in each region by a single observer unaware of animal's treatment and averaged. In each structure, the mean and minimal surface area of the neurons were determined in order to count only neurons and exclude glial cells with smaller cell bodies. (Ref., Jennifer François, Katuschia Germe, Arielle Ferrandon, Estelle Koning, Astrid Nehlig (2011) Carisbamate has powerful disease-modifying effects in the lithium-pilocarpine model of temporal lobe epilepsy, Neuropharmacology 61: 313˜328)
Data were expressed as mean±sem. Statistical analysis of difference between groups was evaluated by ANOVA followed by Dunnett's test or Bonferroni test as a post hoc analysis using Statistica (Statsoft, Inc., USA). Difference was considered statistically significant when the p value was less than 0.05.

Row | Compound | survival rate (30 mg/kg i.p. 30 min after SE onset, kept 2 weeks (FIG. 5)) [%] | survival rate (120 mg/kg i.p. 30 min after SE onset, kept 2 weeks (FIG. 5)) [%] | survival rate (5 mg/kg i.p. 30 min after SE onset, kept 2 weeks (FIG. 4)) [%] | survival rate (25 mg/kg i.p. 30 min after SE onset, kept 2 weeks (FIG. 4)) [%] | survival rate (50 mg/kg i.p. 30 min after SE onset, kept 2 weeks (FIG. 4)) [%]
1 | CC[C@H](OC(N)=O)[C@@H](O)c1ccccc1I [Compound 67, 1-(2-iodophenyl)-(S)-1-hydroxybutyl-(S)-2-carbamate] | 25 | 100 | – | – | –
2 | C[C@H](OC(N)=O)[C@@H](O)c1ccccc1I [Compound 65, 1-(2-iodophenyl)-(S)-1-hydroxypropyl-(S)-2-carbamate] | – | – | 50 | 62.5 | 100
